The values below come from patent publication US20110003015A1, “STABILIZED COMPOSITION COMPRISING AT LEAST ONE ADRENERGIC COMPOUND” (ALK AG, priority 2009, published 2011).

Like-named read-outs stand apart in the source and are kept apart here.

The procedure of series [1]: The formulation solutions were prepared at a level of 1.0 mg/ml adrenaline (in the form of the tartrate), pH 3.4 containing, 0.6% sodium chloride, with various molar ratios (0.25-0.59) of sodium metabisulfite added. The metabisulfite/adrenaline molar ratios tested were 0.25, 0.34, 0.42, 0.5 and 0.59, which correspond to sulfite/adrenaline ratios of 0.5, 0.68, 0.84, 1.0 and 1.18, respectively. For the ease of reference to the general description and claims of this specification, the said values correspond to a molar ratio of adrenaline to sulfite of 2.0, 1.47, 1.19, 1.0 and 0.85, respectively.
Each sample solution was split into two lots. For each sample solution, one lot was placed at the accelerated test temperature of 60° C., protected from light and the other lot placed in a photo-stability cabinet at 25° C. which provided 13400 lux visible light, 1.50 W.h/m^2 UV. Samples were pulled from both conditions at 0, 7, 14 and 28 days At each pull point, the appearance of the test solution was assessed, the pH measured and the adrenaline content measured together with impurities.

The source holds these as a separate data set.
For series [2] the following is noted: at the metabisulfite levels contemplated; 60° C. As for the experimental part:
A 1.1 mg/ml solution of adrenaline (6.004×10^−3 M), in the form of the tartrate, pH 3.4 and containing 0.6% sodium chloride was used. A range of metabisulfite antioxidant concentrations, with and without admixture of 0.25% di-sodium edetate as chelating agent were tested. The metabisulfite/adrenaline molar ratios tested were 0.1, 0.2, 0.5, 1.0 and 1.5, which correspond to sulfite/adrenaline ratios of 0.2, 0.4, 1.0, 2.0 and 3.0, respectively. For the ease of reference to the general description and claims of this specification, the said values correspond to a molar ratio of adrenaline to sulfite of 5.0, 2.5, 1.0, 0.5 and 0.33, respectively.
The accelerated test temperature was 60° C., protected from light, and samples were pulled at 0, 7, 14, 21 and 28 days. At each pull point, the appearance of the test solution was assessed, the pH measured and the solution assayed for adrenaline content. The appearance of degradation products was noted as area %.
[adr]^+ relates to samples containing 0.025% di-sodium edetate, whereas [adr] relates to samples containing no chelating agent.

With `CNC[C@H](O)c1ccc(O)c(O)c1` [adrenaline, (R)-4-(1-hydroxy-2-(methylamino)ethyl)benzene-1,2-diol], the “pH for maximum stability of epinephrine in solution” value is given as “about 3.4”. In addition, in series [1], the “molar ratio of metabisulfite to adrenaline in which stability of adrenaline is improved” value is 0.25-0.59. The “optimum sulfite:adrenaline ratio” value in series [1] (Examples 2 and 3 summarised, 60° C., FIGS. 8 and 9) is given as “about 1.0”. For the same molecule, the “first choice of metabisulfite content with respect to adrenaline” value in series [1] (considering both thermal and photo stresses) was “half molar”. Also, the “best metabisulfite:adrenaline ratio on the basis of total impurities” value in series [1] (heat stress 60° C.) came out at 0.42. Besides, the “best metabisulfite:adrenaline ratio on the basis of total impurities” value in series [1] (photo-stress, 25° C., 13400 lux visible light, 1.50 W.h/m^2 UV) is recorded as 0.5.

`O=C([O-])CN(CCN(CC(=O)[O-])CC(=O)O)CC(=O)O.[Na+].[Na+]` [di-sodium edetate]: the “advantage of using a chelating agent for adrenaline solution stability” value in series [2] is given as “no advantage”.
